Active and inactive are the calls of the source. No rule for the calls is given here.
Test system: M. tuberculosis growth, meropenem IC50 shift with compound
Assay: confirmation, meropenem IC50 shift (AID 485340);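 also: growth read after one week of culture plus overnight Alamar Blue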
[1] = compound alone IC50 vs Mtb, compound dose (near its own IC50) 1.18 µM
[2] = compound dose (near its own IC50) 1.18 µM
[3] = compound alone IC50 vs Mtb, compound dose (near its own IC50) 2.35 µM
[4] = compound dose (near its own IC50) 2.35 µM
[5] = compound alone IC50 vs Mtb, compound dose (near its own IC50) 4.69 µM
[6] = compound dose (near its own IC50) 4.69 µM
[7] = compound alone IC50 vs Mtb, compound dose (near its own IC50) 9.38 µM
[8] = compound dose (near its own IC50) 9.38 µM
[9] = compound alone IC50 vs Mtb, compound dose (near its own IC50) 0.15 µM
[10] = compound dose (near its own IC50) 0.15 µM

COC(=O)c1sc(-c2ccc(C(C)(C)C)cc2)cc1NC(=O)CCC(=O)O
IC50 [1]: 1.37 µM | IC50 [2]: 7.19 µM (inactive)

Cc1c(OCc2ccc(C(=O)O)cc2)ccc2c(-c3ccccc3)cc(=O)oc12
IC50 [3]: 1.42 µM | IC50 [4]: 2.62 µM (inactive)

O=C(N/N=C/c1cc([N+](=O)[O-])ccc1O)C1CC1
IC50 [5]: 4.14 µM | IC50 [6]: 5.6 µM (inactive)

COc1ccc(/C=C/C(=O)N(C(C)C)C(C)C)cc1Br
IC50 [5]: 5.89 µM | IC50 [6]: 4.03 µM (inactive)

N=C1C(c2nc3ccccc3[nH]2)=C(O)CN1c1ccc(F)cc1
IC50 [7]: 7.73 µM | IC50 [8]: 4.04 µM (inactive)

C=C1C(=O)O[C@@H]2[C@H]1[C@@H](OC(=O)/C(C)=C/C)C/C(C)=C\C(=O)/C=C(\C)[C@@H]2O
IC50 [1]: 1.24 µM | IC50 [2]: 6.46 µM (inactive)

CSc1nc(-c2ccc(Cl)cc2)nn1S(=O)(=O)c1ccccc1
IC50 [7]: 9.85 µM | IC50 [8]: 4.13 µM (inactive)

Cc1cc(C)n(-c2nc3ccccc3c(=O)n2OCC(=O)N(C)C)n1
IC50 [7]: 7.74 µM | IC50 [8]: 4.61 µM (inactive)

C/C(=N\NC(N)=S)c1ccc(-n2ccnc2)cc1
IC50 [7]: 6.58 µM | IC50 [8]: 3.97 µM (inactive)

COc1cccc(/C=N/NC(=O)CSCC(=O)Nc2ccccc2)c1O
IC50 [5]: 5.41 µM | IC50 [6]: 3.28 µM (inactive)

CC(=O)c1c(C)[nH]c(C(=O)OCC(=O)Nc2nnc(-c3ccccc3)o2)c1C
IC50 [5]: 4.19 µM | IC50 [6]: 7.02 µM (inactive)

CC(C)=CCC/C(C)=C/C=N/NC(=O)c1ccc([N+](=O)[O-])cc1
IC50 [1]: 1.02 µM | IC50 [2]: 3.4 µM (inactive)

CC(C)CCN1CC(O)=C(c2nc3ccccc3[nH]2)C1=N
IC50 [5]: 6.68 µM | IC50 [6]: 4.06 µM (inactive)

Cc1cc(C)c(OCC(=O)Nc2nc3ccccc3[nH]2)c(C)c1
IC50 [1]: 1.22 µM | IC50 [2]: 7.24 µM (inactive)

C[C@H](NC(=O)c1[nH]cnc1C(=O)Nc1cccc(Cl)c1)c1ccccc1
IC50 [5]: 3.59 µM | IC50 [6]: < 0.52 µM

O=C(COC(=O)C1CC1)NCc1ccccc1Cl
IC50 [1]: 1.37 µM | IC50 [2]: 2.59 µM (inactive)

COC(=O)c1c(-c2ccc(OC)cc2)oc2ccc(-c3cc(OC)c(OC)c(OC)c3)cc12
IC50 [7]: 7.72 µM | IC50 [8]: 6.1 µM (inactive)

Cc1onc(-c2c(Cl)cccc2Cl)c1/C(N)=N/OC(=O)C1CC1
IC50 [3]: 2.05 µM | IC50 [4]: 1.02 µM (inactive)

CN(C)c1ccc(/C=C/c2nc3ccccc3s2)cc1
IC50 [7]: 8.97 µM | IC50 [8]: 3.55 µM (inactive)

COc1cccc(/C=N/NC(=O)c2cnccn2)c1O
IC50 [3]: 2.58 µM | IC50 [4]: 3.28 µM (inactive)

CCOc1ccc2nc(NC(=O)c3cnccn3)sc2c1
IC50 [5]: 4.07 µM | IC50 [6]: 4.08 µM (inactive)

COc1ccc2c(c1)c(C(C)=O)c(C)n2-c1ccccc1
IC50 (compound alone IC50 vs Mtb, compound dose (near its own IC50) 0.3 µM): 0.336 µM | IC50 (compound dose (near its own IC50) 0.3 µM): 7.65 µM (inactive)

CC(C)(C)c1ccc(C(=O)Oc2ccc3c(c2)OCC3=O)cc1
IC50 [7]: 8.64 µM | IC50 [8]: 4.92 µM (inactive)

S=C(Nc1ccccc1)Nc1ccc(Cl)cn1
IC50 [5]: 4.68 µM | IC50 [6]: 4.86 µM (inactive)

N/C(=N\c1nc2ccccc2o1)NC(=O)c1ccccc1Br
IC50 [9]: 0.2 µM | IC50 [10]: 7.58 µM (inactive)

CCSc1nnc(NC(=O)C2Cc3ccccc3CN2C(=O)c2ccco2)s1 (stereo unspecified)
IC50 [3]: 2.69 µM | IC50 [4]: 6.22 µM (inactive)

COc1cccc(NC(=O)C2CC2)c1
IC50 [5]: 6.09 µM | IC50 [6]: 2.07 µM (inactive)

c1ccc(-c2cc(N3CCOCC3)nc3ccccc23)cc1
IC50 [3]: 2.78 µM | IC50 [4]: 3.41 µM (inactive)

CSc1ncnc2c1ccn2CC(=O)Nc1ccc(C)c(C)c1
IC50 [7]: 8.44 µM | IC50 [8]: 7.31 µM (inactive)

NC(=S)N/N=C/c1ccc2ccccc2c1
IC50 [3]: 2.02 µM | IC50 [4]: 1.95 µM (inactive)

O=C(Nc1cccc(Cl)c1N1CCOCC1)c1ccc([N+](=O)[O-])o1
IC50 [1]: 0.909 µM | IC50 [2]: 7.42 µM (inactive)

Cc1ccccc1OCC(=O)Nc1ccccc1N1CCCCC1
IC50 [5]: 5.94 µM | IC50 [6]: 6.96 µM (inactive)

O=C1O/C(=C/c2ccccc2)N=C1c1ccccc1
IC50 [1]: 1.34 µM | IC50 [2]: 4.56 µM (inactive)

Cn1c(/C=N/c2nc3ccccc3[nH]2)nc2ccccc21
IC50 [9]: 0.2 µM | IC50 [10]: 6.15 µM (inactive)

COc1ccc2oc(C(=O)Nc3nc4ccccc4[nH]3)c(C)c2c1
IC50 [3]: 1.7 µM | IC50 [4]: 3.58 µM (inactive)

C/C(=N\NC(=O)c1cc(Br)ccc1O)c1ccccn1
IC50 [5]: 3.88 µM | IC50 [6]: 1.73 µM (inactive)

Cc1nnc(SCC2=C(C(=O)O)N3C(=O)C(NC(=O)COc4ccc(F)cc4)C3SC2)s1 (stereo unspecified)
IC50 [3]: 1.74 µM | IC50 [4]: 1.04 µM (inactive)

COc1cccc(-c2ccc(-c3noc(-c4ccccc4F)n3)c(OC)n2)c1
IC50 [7]: 9.65 µM | IC50 [8]: 4.08 µM (inactive)

Reference: PubChem BioAssay AID485340 (Southern Research Specialized Biocontainment Screening …, 2010)
